Data: article PMC3961306, “Comparison of the Cancer Gene Targeting and Biochemical Selectivities of All Targeted Kinase Inhibitors Approved for Clinical Use” (PLoS ONE, 2014)

Tests used:
Assay in all cases: Kinase profiling in a biochemical assay panel (mobility shift assays and ELISA), %-inhibition at 1 μM; selectivity entropy
[1] = target: panel of more than 300 wild-type and mutant kinases (313 kinase panel) (Homo sapiens, UniProt Q15759); settings: kinase p38β; 1 μM
[2] = target: T1, panel of more than 300 wild-type and mutant kinases (313 kinase panel) (Homo sapiens, UniProt P36888); settings: kinase FLT3; compound at 1 μM
T1 sequence (P36888 27-993): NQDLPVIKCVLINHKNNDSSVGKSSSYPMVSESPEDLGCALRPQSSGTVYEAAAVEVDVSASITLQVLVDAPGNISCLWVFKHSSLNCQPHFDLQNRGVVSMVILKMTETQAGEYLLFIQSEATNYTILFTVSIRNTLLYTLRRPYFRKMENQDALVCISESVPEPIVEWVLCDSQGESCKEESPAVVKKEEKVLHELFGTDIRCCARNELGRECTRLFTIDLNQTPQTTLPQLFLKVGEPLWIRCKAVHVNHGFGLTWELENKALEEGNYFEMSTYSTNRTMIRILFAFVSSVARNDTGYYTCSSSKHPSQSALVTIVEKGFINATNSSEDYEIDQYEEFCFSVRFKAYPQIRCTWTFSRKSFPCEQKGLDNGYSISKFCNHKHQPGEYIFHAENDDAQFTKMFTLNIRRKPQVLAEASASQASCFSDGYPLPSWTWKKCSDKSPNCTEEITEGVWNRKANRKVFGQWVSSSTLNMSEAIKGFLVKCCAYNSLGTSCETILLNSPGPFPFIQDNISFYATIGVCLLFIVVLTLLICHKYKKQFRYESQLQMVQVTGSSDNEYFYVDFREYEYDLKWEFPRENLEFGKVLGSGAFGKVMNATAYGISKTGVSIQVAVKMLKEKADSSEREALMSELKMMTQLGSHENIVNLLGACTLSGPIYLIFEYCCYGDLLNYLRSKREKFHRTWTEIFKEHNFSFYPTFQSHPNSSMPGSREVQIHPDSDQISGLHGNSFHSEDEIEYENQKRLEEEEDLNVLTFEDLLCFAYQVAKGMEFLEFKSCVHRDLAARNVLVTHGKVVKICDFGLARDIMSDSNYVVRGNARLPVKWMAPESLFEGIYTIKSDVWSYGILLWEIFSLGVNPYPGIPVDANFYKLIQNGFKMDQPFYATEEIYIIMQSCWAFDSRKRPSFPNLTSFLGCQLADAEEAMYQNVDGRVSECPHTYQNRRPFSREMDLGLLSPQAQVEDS

[3] = target: T2, panel of more than 300 wild-type and mutant kinases (313 kinase panel) (Homo sapiens, UniProt Q9UHD2); settings: kinase TBK1; 1 μM
T2 sequence (Q9UHD2 1-729): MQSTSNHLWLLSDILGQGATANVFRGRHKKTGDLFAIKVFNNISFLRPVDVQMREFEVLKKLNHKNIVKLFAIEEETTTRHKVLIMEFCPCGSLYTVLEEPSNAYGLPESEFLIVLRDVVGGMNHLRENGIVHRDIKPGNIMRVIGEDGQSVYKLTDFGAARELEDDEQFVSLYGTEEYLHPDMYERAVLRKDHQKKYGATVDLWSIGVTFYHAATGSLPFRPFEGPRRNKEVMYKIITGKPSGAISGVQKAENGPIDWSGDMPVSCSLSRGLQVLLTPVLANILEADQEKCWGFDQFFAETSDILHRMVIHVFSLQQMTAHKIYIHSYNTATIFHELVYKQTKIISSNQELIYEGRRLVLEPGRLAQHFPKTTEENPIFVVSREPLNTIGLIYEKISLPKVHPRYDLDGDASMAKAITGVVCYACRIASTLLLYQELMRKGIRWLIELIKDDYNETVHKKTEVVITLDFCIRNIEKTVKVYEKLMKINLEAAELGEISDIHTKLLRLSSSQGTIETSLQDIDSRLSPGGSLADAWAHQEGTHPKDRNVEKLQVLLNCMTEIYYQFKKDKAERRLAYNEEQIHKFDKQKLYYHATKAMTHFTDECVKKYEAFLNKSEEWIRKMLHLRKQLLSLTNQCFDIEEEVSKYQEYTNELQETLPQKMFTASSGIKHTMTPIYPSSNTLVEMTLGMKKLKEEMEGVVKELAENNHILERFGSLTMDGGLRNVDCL

[4] = target: T3, panel of more than 300 wild-type and mutant kinases (313 kinase panel) (Homo sapiens, UniProt Q08881); settings: kinase ITK; compound at 1 μM
T3 sequence (Q08881 1-620): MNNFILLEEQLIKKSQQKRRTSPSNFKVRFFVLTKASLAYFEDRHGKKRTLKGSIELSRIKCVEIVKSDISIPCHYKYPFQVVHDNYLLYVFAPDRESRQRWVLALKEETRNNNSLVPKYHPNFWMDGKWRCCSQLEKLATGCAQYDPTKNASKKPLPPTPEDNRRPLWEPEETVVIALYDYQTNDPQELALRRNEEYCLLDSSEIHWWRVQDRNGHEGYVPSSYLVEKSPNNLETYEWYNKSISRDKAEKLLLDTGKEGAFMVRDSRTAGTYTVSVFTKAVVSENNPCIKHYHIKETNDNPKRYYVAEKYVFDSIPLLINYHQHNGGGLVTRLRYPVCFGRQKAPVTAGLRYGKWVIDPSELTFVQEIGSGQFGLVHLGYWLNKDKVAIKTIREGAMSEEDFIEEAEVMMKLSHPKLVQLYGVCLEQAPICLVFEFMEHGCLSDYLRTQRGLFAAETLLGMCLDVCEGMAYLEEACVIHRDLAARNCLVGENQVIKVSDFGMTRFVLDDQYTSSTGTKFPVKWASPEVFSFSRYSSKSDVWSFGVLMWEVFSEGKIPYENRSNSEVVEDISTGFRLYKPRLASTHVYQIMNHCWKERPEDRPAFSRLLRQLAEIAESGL

[5] = target: panel of more than 300 wild-type and mutant kinases (313 kinase panel) (Homo sapiens, UniProt Q96RG2); settings: kinase PASK; 1 μM
[6] = target: panel of more than 300 wild-type and mutant kinases (313 kinase panel) (Homo sapiens, UniProt P41240); settings: kinase CSK; compound at 1 μM
[7] = target: panel of more than 300 wild-type and mutant kinases (313 kinase panel) (Homo sapiens, UniProt Q13557); settings: kinase CaMK2δ; 1 μM compound
Sequence of panel of more than 300 wild-type and mutant kinases (313 kinase panel) (Homo sapiens, UniProt Q13557) (Q13557 whole entry, stated change not applied): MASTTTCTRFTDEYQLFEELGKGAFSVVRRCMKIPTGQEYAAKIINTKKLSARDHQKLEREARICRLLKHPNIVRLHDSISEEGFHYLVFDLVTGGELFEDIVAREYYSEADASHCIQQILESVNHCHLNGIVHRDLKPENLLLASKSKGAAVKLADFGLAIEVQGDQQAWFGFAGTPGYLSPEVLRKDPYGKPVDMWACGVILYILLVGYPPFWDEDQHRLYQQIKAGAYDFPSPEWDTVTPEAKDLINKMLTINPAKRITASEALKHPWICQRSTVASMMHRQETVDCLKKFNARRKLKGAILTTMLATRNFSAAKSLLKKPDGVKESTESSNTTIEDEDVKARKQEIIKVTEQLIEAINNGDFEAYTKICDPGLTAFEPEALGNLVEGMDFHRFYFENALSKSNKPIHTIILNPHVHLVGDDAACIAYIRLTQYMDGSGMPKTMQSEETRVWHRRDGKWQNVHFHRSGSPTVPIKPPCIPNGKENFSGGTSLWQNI

Sequence of panel of more than 300 wild-type and mutant kinases (313 kinase panel) (Homo sapiens, UniProt Q96RG2) (Q96RG2 whole entry, change not shown): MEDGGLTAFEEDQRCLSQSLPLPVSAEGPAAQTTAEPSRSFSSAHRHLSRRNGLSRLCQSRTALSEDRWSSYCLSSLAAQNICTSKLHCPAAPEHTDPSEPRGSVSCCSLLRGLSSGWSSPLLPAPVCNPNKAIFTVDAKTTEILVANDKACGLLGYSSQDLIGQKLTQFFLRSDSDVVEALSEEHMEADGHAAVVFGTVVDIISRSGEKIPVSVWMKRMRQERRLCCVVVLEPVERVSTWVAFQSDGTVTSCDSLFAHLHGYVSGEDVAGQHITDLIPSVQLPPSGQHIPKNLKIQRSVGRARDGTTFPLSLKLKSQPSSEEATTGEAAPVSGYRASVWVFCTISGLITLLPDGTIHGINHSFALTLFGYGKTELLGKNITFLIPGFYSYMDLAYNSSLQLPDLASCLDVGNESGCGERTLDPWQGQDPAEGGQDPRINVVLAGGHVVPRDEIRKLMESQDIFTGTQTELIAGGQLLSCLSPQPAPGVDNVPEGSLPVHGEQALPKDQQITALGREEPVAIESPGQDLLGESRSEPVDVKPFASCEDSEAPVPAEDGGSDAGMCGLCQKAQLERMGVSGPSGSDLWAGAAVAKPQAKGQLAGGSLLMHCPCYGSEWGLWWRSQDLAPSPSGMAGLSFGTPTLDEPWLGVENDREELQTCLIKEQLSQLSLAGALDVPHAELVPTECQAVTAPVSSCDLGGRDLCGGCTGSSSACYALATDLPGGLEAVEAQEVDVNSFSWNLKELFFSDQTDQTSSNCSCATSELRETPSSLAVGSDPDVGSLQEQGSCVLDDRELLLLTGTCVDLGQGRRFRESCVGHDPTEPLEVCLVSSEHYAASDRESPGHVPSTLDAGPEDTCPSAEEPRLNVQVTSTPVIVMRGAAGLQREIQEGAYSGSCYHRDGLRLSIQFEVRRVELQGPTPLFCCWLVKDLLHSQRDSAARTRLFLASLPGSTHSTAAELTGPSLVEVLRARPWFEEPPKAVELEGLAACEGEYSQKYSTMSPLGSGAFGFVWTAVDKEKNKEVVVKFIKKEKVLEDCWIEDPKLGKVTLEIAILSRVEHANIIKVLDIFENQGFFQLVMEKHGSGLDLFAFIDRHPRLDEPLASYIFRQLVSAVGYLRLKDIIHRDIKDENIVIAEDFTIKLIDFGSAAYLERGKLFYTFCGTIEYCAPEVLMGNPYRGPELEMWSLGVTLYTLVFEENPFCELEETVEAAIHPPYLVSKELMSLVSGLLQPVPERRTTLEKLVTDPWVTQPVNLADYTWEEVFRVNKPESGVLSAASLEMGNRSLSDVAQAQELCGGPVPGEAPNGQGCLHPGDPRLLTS
Sequence of panel of more than 300 wild-type and mutant kinases (313 kinase panel) (Homo sapiens, UniProt P41240) (P41240 whole entry, stated change not applied): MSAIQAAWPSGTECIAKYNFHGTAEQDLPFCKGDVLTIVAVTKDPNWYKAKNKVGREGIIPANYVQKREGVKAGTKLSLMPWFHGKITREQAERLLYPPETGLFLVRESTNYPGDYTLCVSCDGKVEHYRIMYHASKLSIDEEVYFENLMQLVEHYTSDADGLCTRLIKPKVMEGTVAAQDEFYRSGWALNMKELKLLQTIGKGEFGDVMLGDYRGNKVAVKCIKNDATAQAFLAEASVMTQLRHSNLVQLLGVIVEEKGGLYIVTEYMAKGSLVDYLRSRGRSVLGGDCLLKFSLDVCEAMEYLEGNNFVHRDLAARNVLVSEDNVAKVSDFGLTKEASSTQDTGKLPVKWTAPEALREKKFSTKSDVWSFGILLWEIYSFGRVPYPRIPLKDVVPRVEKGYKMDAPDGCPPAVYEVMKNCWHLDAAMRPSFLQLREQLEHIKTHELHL

Row | Compound | %-inhibition of p38β [1] [%] | %-inhibition of FLT3 [2] [%] | %-inhibition of TBK1 [3] [%] | %-inhibition of ITK [4] [%] | %-inhibition of PASK [5] [%] | %-inhibition of CSK [6] [%] | %-inhibition, CaMK2δ [7] [%]
1 | CC(=O)Nc1cccc(-n2c(=O)n(C3CC3)c(=O)c3c(Nc4ccc(I)cc4F)n(C)c(=O)c(C)c32)c1 [trametinib] | 2.31 | 20 | -4.47 | -7.56 | -0.187 | -2.83 | -2.19
2 | COc1cc2c(Nc3ccc(Br)cc3F)ncnc2cc1OCC1CCN(C)CC1 [vandetanib] | 7 | 90 | 0.911 | 20 | -4.23 | 68 | 10
3 | CCCS(=O)(=O)Nc1ccc(F)c(C(=O)c2c[nH]c3ncc(-c4ccc(Cl)cc4)cc23)c1F [vemurafenib] | 24 | 10 | -0.81 | 3 | 2.35 | 76 | -0.235
